From ChEMBL document CHEMBL6114989, “D-morphinan analogs with favorable pharmacokinetic profiles as dual-acting antidepressants” (Eur J Med Chem, 2025)
Calls of active or inactive are those of the source. No cut-off for these calls is given here.

Key:
[1] = MRT (0 to infinity) in ICR mouse at 10 mg/kg, ip measured upto 24 hrs by LC-MS/MS analysis; type: ADME, organism-based; settings: in vivo
[2] = Metabolic stability in mouse liver microsome assessed as hepatic clearance in presence of NADPH measured upto 60 mins by LC-MS/MS analysis; type: ADME; settings: liver microsomes
[3] = AUC (0 to t) in ICR mouse at 10 mg/kg, ip measured upto 24 hrs by LC-MS/MS analysis; type: ADME, organism-based; settings: in vivo
Mu-type opioid receptor = Mu-type opioid receptor (Homo sapiens, UniProt P35372); assay: Agonist activity at human mu-opioid receptor stably expressed in CHO cells assessed as inhibition of forskolin-induced cAMP accumulation at 30 uM preincubated with compound for 10 mins followed by forskolin induction and measured after 30 mins by LANCE Ultra cAMP assay relative to control; type: functional, cell-based; settings: time 40.0 min
[4] = biological target: Glutamate NMDA receptor; GRIN1/GRIN2A (Homo sapiens, UniProt Q05586+Q12879); assay: Antagonist activity at human GluN1/GluN2A NMDA receptor expressed in HEK293 cells assessed as reduction in glutamate induced current at -70 mV holding potential by whole-cell patch clamp technique; type: cell-based
[5] = Half life in ICR mouse at 10 mg/kg, ip measured upto 24 hrs by LC-MS/MS analysis; type: ADME, organism-based; settings: in vivo
[6] = MRT (0 to t) in ICR mouse at 10 mg/kg, po measured upto 24 hrs by LC-MS/MS analysis; type: ADME, organism-based; settings: in vivo
Mus musculus [7] = assay: Antidepressant activity in C57BL/6J mouse assessed as reduction in of immobility time at 10 to 30 mg/kg, po in presence of quinidine by forced swim test; type: functional, organism-based; settings: dose 10-30 mg/kg
[8] = Metabolic stability in human liver microsome assessed as hepatic clearance in presence of NADPH measured upto 60 mins by LC-MS/MS analysis; type: ADME; settings: liver microsomes
[9] = Cmax in ICR mouse at 10 mg/kg, po measured upto 24 hrs by LC-MS/MS analysis; type: ADME, organism-based; settings: in vivo
[10] = biological target: Sodium-dependent dopamine transporter (Homo sapiens, UniProt Q01959); assay: Inhibition of DAT (unknown origin) at 10 uM relative to control
[11] = Half life in ICR mouse at 10 mg/kg, po measured upto 24 hrs by LC-MS/MS analysis; type: ADME, organism-based; settings: in vivo
[12] = Metabolic stability in mouse liver microsome assessed as half life in presence of NADPH measured upto 60 mins by LC-MS/MS analysis; type: ADME; settings: liver microsomes
Mus musculus [13] = assay: Antidepressant activity in C57BL/6J mouse assessed as reduction in of immobility time at 10 to 30 mg/kg, po by forced swim test; type: functional, organism-based; settings: dose 10-30 mg/kg
[14] = AUC (0 to infinity) in ICR mouse at 10 mg/kg, ip measured upto 24 hrs by LC-MS/MS analysis; type: ADME, organism-based; settings: in vivo
[15] = biological target: Voltage-gated inwardly rectifying potassium channel KCNH2 (Homo sapiens, UniProt Q12809); assay: Inhibition of hERG expressed in CHO cells assessed as inhibition of channel current at holding potential of -80 mV by automated patch clamp method; type: toxicity, cell-based
[16] = Tmax in ICR mouse at 10 mg/kg, po measured upto 24 hrs by LC-MS/MS analysis; type: ADME, organism-based; settings: in vivo
[17] = Metabolic stability in human liver microsome assessed as half life in presence of NADPH measured upto 60 mins by LC-MS/MS analysis; type: ADME; settings: liver microsomes
HEK293 [18] = assay: Nephrotoxicity against human HEK293 cells assessed as reduction in cell viability at 200 uM incubated for 48 hrs by celltiter-luminescence assay; type: toxicity, cell-based; settings: hek293, 48 h
[19] = Cmax in ICR mouse at 10 mg/kg, ip measured upto 24 hrs by LC-MS/MS analysis; type: ADME, organism-based; settings: in vivo
[20] = Tmax in ICR mouse at 10 mg/kg, ip measured upto 24 hrs by LC-MS/MS analysis; type: ADME, organism-based; settings: in vivo
[21] = Nephrotoxicity against human HEK293 cells assessed as inhibition of cell proliferation incubated for 48 hrs by celltiter-luminescence assay; type: toxicity, cell-based
[22] = AUC (0 to infinity) in ICR mouse at 10 mg/kg, po measured upto 24 hrs by LC-MS/MS analysis; type: ADME, organism-based; settings: in vivo
[23] = Metabolic stability in human liver microsome assessed as intrinsic clearance in presence of NADPH measured upto 60 mins by LC-MS/MS analysis; type: ADME; settings: liver microsomes, read-out: CLH
[24] = Metabolic stability in mouse liver microsome assessed as intrinsic clearance in presence of NADPH measured upto 60 mins by LC-MS/MS analysis; type: ADME; settings: liver microsomes, read-out: CLH
[25] = Hepatotoxicity against human HepG2 cells assessed as inhibition of cell proliferation incubated for 48 hrs by celltiter-luminescence assay; type: toxicity, cell-based
[26] = Hepatotoxicity against human HepG2 cells assessed as reduction in cell viability at 50 uM incubated for 48 hrs by celltiter-luminescence assay; type: toxicity, cell-based; settings: hepg2, 48 h
[27] = biological target: T1, Sodium-dependent noradrenaline transporter (Homo sapiens, UniProt P23975); assay: Inhibition of human NET
[28] = AUC (0 to t) in ICR mouse at 10 mg/kg, po measured upto 24 hrs by LC-MS/MS analysis; type: ADME, organism-based; settings: in vivo
[29] = Metabolic stability in human liver microsome assessed as hepatic extraction ratio in presence of NADPH measured upto 60 mins by LC-MS/MS analysis; type: ADME; settings: liver microsomes, read-out: ERH
[30] = biological target: T1, Sodium-dependent noradrenaline transporter; assay: Inhibition of NET (unknown origin) at 10 uM relative to control
Mus musculus [31] = assay: Antidepressant activity in C57BL/6J mouse assessed as reduction in of immobility time at 20 mg/kg, ip by forced swim test; type: functional, organism-based
[32] = Metabolic stability in mouse liver microsome assessed as hepatic extraction ratio in presence of NADPH measured upto 60 mins by LC-MS/MS analysis; type: ADME; settings: liver microsomes, read-out: ERH
HEK293 [33] = assay: Nephrotoxicity against human HEK293 cells assessed as reduction in cell viability at 100 to 200 uM incubated for 48 hrs by celltiter-luminescence assay; type: toxicity, cell-based; settings: hek293, 48 h, dose 100-200 µM
[34] = Selectivity index, ratio of IC50 for inhibition of human GluN1/GluN2A NMDA receptor expressed in HEK293 cells to IC50 for inhibition of SERT (unknown origin); type: cell-based
[35] = Hepatotoxicity against human HepG2 cells assessed as reduction in cell viability at 100 to 200 uM incubated for 48 hrs by celltiter-luminescence assay; type: toxicity, cell-based; settings: hepg2, 48 h, dose 100-200 µM
[36] = biological target: Sodium-dependent serotonin transporter (Homo sapiens, UniProt P31645)
Mus musculus [37] = assay: Antidepressant activity in ip dosed C57BL/6J mouse assessed as reduction in of immobility time by forced swim test; type: functional, organism-based; settings: dose 10-20 mg/kg

Sodium-dependent dopamine transporter, sequence (Q01959 whole entry): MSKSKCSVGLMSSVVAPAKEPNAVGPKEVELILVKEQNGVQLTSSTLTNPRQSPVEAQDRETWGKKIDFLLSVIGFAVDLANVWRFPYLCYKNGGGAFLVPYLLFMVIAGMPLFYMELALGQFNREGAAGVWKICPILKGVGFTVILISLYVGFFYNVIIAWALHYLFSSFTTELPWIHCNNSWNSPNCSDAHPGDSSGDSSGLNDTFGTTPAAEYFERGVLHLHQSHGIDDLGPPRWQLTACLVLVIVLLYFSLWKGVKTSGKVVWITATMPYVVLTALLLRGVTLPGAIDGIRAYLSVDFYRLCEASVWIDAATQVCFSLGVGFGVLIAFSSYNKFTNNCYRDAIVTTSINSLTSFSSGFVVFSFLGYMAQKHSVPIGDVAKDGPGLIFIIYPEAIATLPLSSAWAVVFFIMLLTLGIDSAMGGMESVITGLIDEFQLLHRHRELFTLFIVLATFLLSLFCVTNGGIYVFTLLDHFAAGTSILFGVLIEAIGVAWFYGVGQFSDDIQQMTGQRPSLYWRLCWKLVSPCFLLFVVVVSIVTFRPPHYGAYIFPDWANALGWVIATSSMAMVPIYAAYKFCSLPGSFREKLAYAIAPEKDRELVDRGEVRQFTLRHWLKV
Voltage-gated inwardly rectifying potassium channel KCNH2, sequence (Q12809 whole entry): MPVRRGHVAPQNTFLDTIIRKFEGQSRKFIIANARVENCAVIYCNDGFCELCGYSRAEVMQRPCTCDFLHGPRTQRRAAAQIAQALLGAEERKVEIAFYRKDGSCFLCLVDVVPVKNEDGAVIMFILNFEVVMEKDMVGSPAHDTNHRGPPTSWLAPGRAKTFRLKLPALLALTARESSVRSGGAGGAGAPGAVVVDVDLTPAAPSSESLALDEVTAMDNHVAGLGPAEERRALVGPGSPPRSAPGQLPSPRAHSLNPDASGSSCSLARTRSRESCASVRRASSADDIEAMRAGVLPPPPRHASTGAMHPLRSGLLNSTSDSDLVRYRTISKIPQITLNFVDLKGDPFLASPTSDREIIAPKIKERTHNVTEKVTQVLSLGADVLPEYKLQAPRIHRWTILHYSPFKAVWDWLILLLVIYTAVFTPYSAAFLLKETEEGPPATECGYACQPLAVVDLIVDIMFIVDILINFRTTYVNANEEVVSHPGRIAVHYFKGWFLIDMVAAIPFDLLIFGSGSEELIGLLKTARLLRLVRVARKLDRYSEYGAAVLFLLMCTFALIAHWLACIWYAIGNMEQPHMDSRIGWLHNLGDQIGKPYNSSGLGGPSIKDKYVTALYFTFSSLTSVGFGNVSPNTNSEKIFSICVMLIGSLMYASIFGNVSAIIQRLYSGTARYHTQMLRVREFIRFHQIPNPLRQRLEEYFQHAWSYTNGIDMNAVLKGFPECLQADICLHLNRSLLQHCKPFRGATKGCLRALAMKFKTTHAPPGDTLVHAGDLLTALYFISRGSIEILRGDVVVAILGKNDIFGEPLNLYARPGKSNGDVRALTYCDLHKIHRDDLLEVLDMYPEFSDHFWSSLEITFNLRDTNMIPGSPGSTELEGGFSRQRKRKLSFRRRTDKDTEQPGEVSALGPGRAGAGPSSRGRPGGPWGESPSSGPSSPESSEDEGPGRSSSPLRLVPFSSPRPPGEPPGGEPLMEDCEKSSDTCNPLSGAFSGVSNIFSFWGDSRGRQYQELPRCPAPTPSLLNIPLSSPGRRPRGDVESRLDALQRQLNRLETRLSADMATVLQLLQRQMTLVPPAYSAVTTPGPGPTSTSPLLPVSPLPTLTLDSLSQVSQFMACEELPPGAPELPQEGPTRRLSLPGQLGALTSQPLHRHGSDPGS
Glutamate NMDA receptor; GRIN1/GRIN2A, sequence (Q12879 whole entry, other chains not shown): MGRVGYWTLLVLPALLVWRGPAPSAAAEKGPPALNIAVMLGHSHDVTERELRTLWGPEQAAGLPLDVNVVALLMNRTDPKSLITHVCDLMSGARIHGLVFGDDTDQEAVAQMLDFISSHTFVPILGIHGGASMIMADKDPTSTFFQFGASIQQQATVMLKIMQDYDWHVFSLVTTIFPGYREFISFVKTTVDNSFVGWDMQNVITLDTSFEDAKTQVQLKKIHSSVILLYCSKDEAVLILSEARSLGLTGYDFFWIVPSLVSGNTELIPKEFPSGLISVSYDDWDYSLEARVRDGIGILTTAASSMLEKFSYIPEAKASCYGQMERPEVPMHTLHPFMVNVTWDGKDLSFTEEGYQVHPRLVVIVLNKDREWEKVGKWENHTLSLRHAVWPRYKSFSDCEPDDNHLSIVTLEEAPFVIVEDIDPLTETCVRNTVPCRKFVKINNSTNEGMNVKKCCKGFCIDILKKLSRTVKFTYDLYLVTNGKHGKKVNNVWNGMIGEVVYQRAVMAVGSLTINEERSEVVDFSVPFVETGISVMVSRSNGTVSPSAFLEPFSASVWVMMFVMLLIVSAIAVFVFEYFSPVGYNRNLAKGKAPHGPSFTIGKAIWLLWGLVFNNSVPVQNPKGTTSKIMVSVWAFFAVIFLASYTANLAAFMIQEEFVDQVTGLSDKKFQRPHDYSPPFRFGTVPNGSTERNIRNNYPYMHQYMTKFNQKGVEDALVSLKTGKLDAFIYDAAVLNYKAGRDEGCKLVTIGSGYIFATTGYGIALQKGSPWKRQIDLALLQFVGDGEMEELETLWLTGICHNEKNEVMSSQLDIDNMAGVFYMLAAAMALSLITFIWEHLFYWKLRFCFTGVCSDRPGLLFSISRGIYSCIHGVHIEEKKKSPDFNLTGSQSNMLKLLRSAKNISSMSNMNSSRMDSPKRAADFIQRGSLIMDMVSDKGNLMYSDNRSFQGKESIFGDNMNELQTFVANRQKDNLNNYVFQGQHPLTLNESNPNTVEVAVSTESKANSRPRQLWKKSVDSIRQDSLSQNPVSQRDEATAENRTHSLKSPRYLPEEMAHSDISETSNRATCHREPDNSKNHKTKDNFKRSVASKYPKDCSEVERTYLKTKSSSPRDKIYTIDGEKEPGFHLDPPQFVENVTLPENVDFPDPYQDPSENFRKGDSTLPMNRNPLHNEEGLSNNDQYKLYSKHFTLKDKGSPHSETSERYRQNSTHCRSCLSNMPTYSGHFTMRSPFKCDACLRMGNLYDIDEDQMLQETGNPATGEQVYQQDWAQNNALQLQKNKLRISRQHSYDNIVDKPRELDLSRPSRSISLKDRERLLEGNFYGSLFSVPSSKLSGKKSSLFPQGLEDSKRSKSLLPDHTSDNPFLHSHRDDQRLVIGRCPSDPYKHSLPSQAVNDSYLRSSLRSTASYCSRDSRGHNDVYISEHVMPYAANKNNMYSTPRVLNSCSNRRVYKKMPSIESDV
Mu-type opioid receptor, sequence (P35372 whole entry): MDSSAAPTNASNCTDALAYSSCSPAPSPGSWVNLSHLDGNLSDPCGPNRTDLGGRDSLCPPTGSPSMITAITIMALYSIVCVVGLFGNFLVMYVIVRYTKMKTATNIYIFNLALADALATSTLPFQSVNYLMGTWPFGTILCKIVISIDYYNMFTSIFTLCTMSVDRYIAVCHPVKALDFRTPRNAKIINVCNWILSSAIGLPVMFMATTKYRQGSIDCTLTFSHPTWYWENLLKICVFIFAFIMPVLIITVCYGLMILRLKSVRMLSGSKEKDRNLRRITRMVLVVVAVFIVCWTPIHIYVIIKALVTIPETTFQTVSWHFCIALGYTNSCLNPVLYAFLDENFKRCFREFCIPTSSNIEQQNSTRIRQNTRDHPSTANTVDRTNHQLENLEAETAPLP
Sodium-dependent serotonin transporter, sequence (P31645 whole entry): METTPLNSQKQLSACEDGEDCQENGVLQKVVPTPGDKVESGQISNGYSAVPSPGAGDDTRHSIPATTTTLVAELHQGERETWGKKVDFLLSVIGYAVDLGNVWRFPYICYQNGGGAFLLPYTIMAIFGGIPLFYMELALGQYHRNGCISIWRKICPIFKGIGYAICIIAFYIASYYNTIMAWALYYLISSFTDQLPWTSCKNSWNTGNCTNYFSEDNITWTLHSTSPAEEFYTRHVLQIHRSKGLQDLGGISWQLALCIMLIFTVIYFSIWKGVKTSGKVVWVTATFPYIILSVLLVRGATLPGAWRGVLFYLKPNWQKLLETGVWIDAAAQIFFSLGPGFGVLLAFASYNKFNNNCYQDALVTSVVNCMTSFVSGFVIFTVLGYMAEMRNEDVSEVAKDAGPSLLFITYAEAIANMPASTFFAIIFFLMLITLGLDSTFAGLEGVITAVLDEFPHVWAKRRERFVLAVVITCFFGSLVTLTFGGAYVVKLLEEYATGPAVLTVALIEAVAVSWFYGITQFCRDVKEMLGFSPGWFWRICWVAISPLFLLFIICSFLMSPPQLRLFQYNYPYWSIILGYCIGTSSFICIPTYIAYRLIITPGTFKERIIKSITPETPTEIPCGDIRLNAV
T1 sequence (P23975 whole entry): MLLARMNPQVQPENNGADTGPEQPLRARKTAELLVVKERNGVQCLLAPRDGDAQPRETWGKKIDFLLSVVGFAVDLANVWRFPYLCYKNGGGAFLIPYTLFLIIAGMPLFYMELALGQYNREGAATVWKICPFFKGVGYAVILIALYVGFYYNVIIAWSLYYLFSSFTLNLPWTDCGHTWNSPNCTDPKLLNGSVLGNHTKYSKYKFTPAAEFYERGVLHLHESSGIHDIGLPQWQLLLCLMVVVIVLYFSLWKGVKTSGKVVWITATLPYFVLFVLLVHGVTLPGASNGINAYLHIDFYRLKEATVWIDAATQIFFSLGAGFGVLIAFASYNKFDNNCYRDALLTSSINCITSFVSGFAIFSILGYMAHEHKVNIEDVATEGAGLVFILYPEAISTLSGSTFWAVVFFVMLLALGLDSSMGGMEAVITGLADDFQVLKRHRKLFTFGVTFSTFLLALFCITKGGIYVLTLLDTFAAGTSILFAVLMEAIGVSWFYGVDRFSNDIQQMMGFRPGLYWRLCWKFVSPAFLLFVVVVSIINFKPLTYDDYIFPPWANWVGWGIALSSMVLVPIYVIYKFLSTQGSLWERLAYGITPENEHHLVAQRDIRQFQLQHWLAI

SMILES | MRT inf [1] | CLhep predicted [2] | AUC(0-t) at 24 h [3] | inhibition (Mu-type opioid receptor) | IC50 [4] | half-life [5] | MRT last at 24 h [6] | CLhep predicted [8] | Cmax [9] | inhibition [10] | half-life [11] | half-life [12] | AUC(0-inf) [14] | IC50 [15] | Tmax [16] | half-life [17] | Cmax [19] | Tmax [20] | IC50 at 48 h [21] | AUC(0-inf) [22] | also measured
COc1ccc2c(c1)[C@]13CCCC[C@@H]1[C@H](C2)N(C)CC3 [DEXTROMETHORPHAN] | 1.33 h | 72 mL/min/kg | 817 ng·h/mL | 5% | 1.04 µM | 1.93 h | 5.1 h | 10.5 mL/min/kg | 57.7 ng/mL | inactive | 3.17 h | 0.433 h | 820 ng·h/mL | 13 µM | 0.83 h | 2.32 h | 720 ng/mL | 8.4 min | > 200 µM | 207 ng·h/mL | Activity (Mus musculus [7]): Active; Activity (Mus musculus [13]): inactive; Activity (HEK293 [18]): Toxic; CLint scaled [23]: 20.9 mL/min/kg; CLint scaled [24]: 360 mL/min/kg; IC50 at 48 h [25]: > 200 µM; Activity [26]: Non-toxic; IC50 [27]: […]; AUC(0-t) at 24 h [28]: 198 ng·h/mL
CN1CC[C@@]23CCCC[C@@H]2[C@@H]1Cc1ccc(N)cc13 | 2.64 h | 38.9 mL/min/kg | 2520 ng·h/mL | 11% | 3.5 µM | 2.92 h | 2.45 h | 11 mL/min/kg | 1380 ng/mL | 11% | 3.24 h | 2.28 h | 2520 ng·h/mL | 22.1 µM | 0.42 h | 2.08 h | 1360 ng/mL | 4.8 min | > 200 µM | 2720 ng·h/mL | hepatic extraction ratio at 1 h [29]: 0.525; inhibition [30]: 4%; Activity (Mus musculus [31]): Active; hepatic extraction ratio at 1 h [32]: 0.423; Activity (HEK293 [33]): Non-toxic; Ratio IC50 [34]: 3.35; Activity [35]: Non-toxic; IC50 [36]: 1040 µM; CLint scaled [23]: 23.2 mL/min/kg; CLint scaled [24]: 68.4 mL/min/kg; IC50 at 48 h [25]: > 200 µM; Activity (Mus musculus [37]): Dose-dependent-effect; AUC(0-t) at 24 h [28]: 2710 ng·h/mL
